US20200093768A1, “METHOD FOR TREATING DIABETES” (Huanggang Normal University, priority 2018, published 2020)
Marks after values point to notes of the source that are not given here.

Key:
[1] = Body weight, food intake and BMI of ZDF rats treated once daily for 30 days; type: in vivo, rat; set-up: Food Intake / BMI: unit not given here; conditions: for Change in body weight versus ZDF control (in words): ibuprofen between day 8 and 26; for BMI / Body Weight / Food Intake: oral gavage once daily (metformin 250 mg/kg, ibuprofen 100 mg/kg); for BMI / Food Intake: n=8; for Body Weight: n=8, in g (unit assumed); for Food Intake: recorded weekly
[2] = test system: Zucker diabetic fatty (ZDF) rats; assay: HbA1c analysis in whole blood; type: in vivo, rat; conditions: after 30 days of treatment, versus ZDF controls (FIG. 3A)
Experimental: On study day 30, blood was collected at CRL. […] Glycated hemoglobin (HbA1c) levels in venous whole blood were determined at CRL using the HbA1c Now test kit (Bayer, Whippany, N.J.). HbA1c was measured in treatment groups by immunoassay with anti-HbA1c using tail nick whole blood.

[3] = test system: Zucker diabetic fatty (ZDF) rats; assay: Clinical chemistry analysis: insulin, adiponectin, lipid parameters; type: in vivo, rat
Experimental: Plasma analysis of insulin, adiponectin, cytokines and a full clinical chemistry panel with lipid parameters was performed at CRL using commercially available ELISA and colorimetric kits.

[4] = test system: Zucker diabetic fatty (ZDF) rats; assay: Anti-inflammatory cytokines (IL-4, IL-10, IL-13) by ELISA; type: in vivo, rat; conditions: for IL-10 plasma levels: versus ZDF controls (FIG. 5B)
From the text: On study day 30, blood was collected at CRL.
The expression of inflammatory genes in blood and epididymal adipose tissue was next analyzed. A panel of three anti-inflammatory cytokines in whole blood was quantified by ELISA analysis as a measure for systemic inflammation (FIG. 5). IL-4, IL-10 and IL-13 are involved in the reduction of the inflammatory response through inhibition of NFκB signaling and cytokine release from macrophages.

[5] = test system: inflammatory genes (COX-2, ICAM-1, IL-1β, IL-6, TNF-α) in whole blood; assay: TaqMan qPCR of inflammatory genes in whole blood; type: in vivo, rat; conditions: ZDF rats, normalized to GAPDH, versus ZDF controls (FIG. 6A)
Experimental: On study day 30, blood was collected at CRL. HbA1c was measured at 8 hrs on a drop of tail whole blood and then animals were fasted. At 11 hrs, animals were dosed per normal and euthanized at 13 hrs by CO2 asphyxiation. Blood was withdrawn by cardiac puncture and 1 mL of whole blood placed into cryo vials for RNA extraction. Remaining blood was centrifuged (at 2200×g for 10 minutes at 22° C.) and serum (500 uL) pipetted into 96 well plates on dry ice for analysis of the following: insulin, adiponectin, clinical chemistry panel with lipid parameters, and the inflammatory panel. Liver, epididymal fat, kidney, heart and spleen were collected and a representative piece was snap frozen. 100 mg of tissue was transferred into 1.5 mL cold RNA later tubes and stored overnight at 4° C. before being moved to −20° C. […]
In the next set of experiments, the expression of a subset of inflammatory genes were quantified in whole blood (FIG. 6A) and epididymal fat tissue (FIG. 6B): cyclooxygenase-2 (COX-2), intracellular adhesion molecule-1 (ICAM-1), interleukin-1β (IL-1β), interleukin-6 (IL-6) and tumor necrosis factor-α (TNF-α) by TaqMan qPCR analysis. […]

[6] = test system: Zucker diabetic fatty (ZDF) rats; assay: Fasted and fed blood glucose in ZDF rats; conditions: for Fasted blood glucose levels: 5 hrs fasted, versus ZDF vehicle control (FIG. 1A)
[7] = test system: Zucker diabetic fatty (ZDF) rats; assay: Oral glucose tolerance test (OGTT) on study day 29; conditions: day 29, overnight fasted, glucose 2 g/kg, versus ZDF vehicle control, metformin from 15 min (p<0.01), ibuprofen at 15 min (p<0.01) and 30 min (p<0.05)
hyperglycemic adults = conditions: clinical pilot study, low dosage of ibuprofen; cited from earlier work
[8] = Day 29 (after overnight fasting), mean
[9] = after 30 days, versus ZDF controls (FIG. 4D-F)

SMILES | Change in food intake versus ZDF control (in words) ([1]; chronic treatment) | Change in body weight versus ZDF control (in words) ([1]; chronic treatment) | BMI ([1]; Day 1, mean) | Body Weight ([1]; Day 1, mean) | Body Weight ([1]; Day 4, mean) | BMI ([1]; Day 8, mean) | Body Weight ([1]; Day 8, mean) | Body Weight ([1]; Day 11, mean) | BMI ([1]; Day 15, mean) | Body Weight ([1]; Day 15, mean) | Body Weight ([1]; Day 19, mean) | BMI ([1]; Day 22, mean) | Body Weight ([1]; Day 22, mean) | Body Weight ([1]; Day 26, mean) | Body Weight [1, 8] | BMI ([1]; Day 29, mean) | Food Intake ([1]; Day 8, mean) | Food Intake ([1]; Day 15, mean) | Food Intake ([1]; Day 22, mean) | Food Intake ([1]; Day 28, mean) | other results
CN(C)C(=N)NC(=N)N [metformin, 1,1-dimethylbiguanide] | did not cause any significant changes | did not cause any significant changes | 2.60 | 376.6 | 377.8 | 2.57 | 388.5 | 396.1 | 2.47 | 390.9 | 400.8 | 2.52 | 399.9 | 405.6 | 378.9 | 2.39 | 255.1 | 309.9 | 299.1 | 278.8 | Change in BMI versus ZDF control (in words) ([1]; chronic treatment): did not cause any significant changes; Glycated hemoglobin (HbA1c) [2]: did not significantly affect; Fasting cholesterol [3, 9]: No significant differences; HDL [3, 9]: No significant differences; LDL [3, 9]: No significant differences; Plasma insulin levels ([3]; day 30 (FIG. 3B)): 1.54 ng/mL; IL-10 plasma levels [4]: No significant changes; ICAM-1 gene expression [5]: no differences; Fasted blood glucose levels [6]: significant decrease; Fed glucose levels ([6]; fed, versus ZDF vehicle control (FIG. 1B)): significant higher levels on day 22 and 28; Blood glucose in OGTT [7]: significant decline in blood glucose
CC(C)Cc1ccc(C(C)C(=O)O)cc1 (stereo not drawn) [ibuprofen, 2-(4-Isobutylphenyl)propanoic acid] | lower food intake | decline in body weight | 2.67 | 386.5 | 370.8 | 2.51* | 376.4** | 379.4* | 2.44 | 377.9 | 376.3* | 2.47 | 385.8 | 380.6* | 359.0 | 2.28 | 225.4** | 258.8* | 233.5* | 239.3* | Glycated hemoglobin (HbA1c) [2]: attenuated the glycation of hemoglobin; Fasting cholesterol [3, 9]: strong decline; HDL [3, 9]: strong decline; IL-4 level ([4]; versus ZDF controls (FIG. 5A)): significantly increased; IL-10 plasma levels [4]: No significant changes; IL-13 levels ([4]; versus ZDF controls (FIG. 5C)): increased; Glucose and insulin in hyperglycemic adults (hyperglycemic adults): did not reveal major differences; Fasted blood glucose levels [6]: did reduce fasting blood glucose levels but this was not significant; Blood glucose in OGTT [7]: significant decrease in blood glucose
